Measurements published in publication PMC5413906, “Structural and functional analysis of Oceanobacillus iheyensis macrodomain reveals a network of waters involved in substrate binding and catalysis” (Open Biology, 2017).

Experiments:
Assay type in all cases: binding
OiMacroD [1] = molecular target: T1, OiMacroD (Oceanobacillus iheyensis, UniProt Q8EP31); experiment: thermal shift, SYPRO Orange; details: 50 mM sodium phosphate pH 7.0, 1 mM ligand; without ligand Tm = 41.7 ± 0.2 °C
T1 construct: gene OB2288

OiMacroD [2] = molecular target: T1, OiMacroD; experiment: thermal shift, SYPRO Orange; details: 50 mM sodium phosphate pH 7.0, 1 mM ligand; without ligand Tm = 41.7 ± 0.2 °C; remark: listed apart in the source
OiMacroD [3] = molecular target: T1, OiMacroD; experiment: X-ray crystal structure, […] Å; details: crystal soaked with 20 mM ADP; active site, two alternative conformations
OiMacroD [4] = molecular target: T1, OiMacroD; experiment: thermal shift, SYPRO Orange; details: 50 mM sodium phosphate pH 7.0, 1 mM ligand; without ligand Tm = 41.7 ± 0.2 °C; remark: listed apart in the source
OiMacroD [5] = molecular target: T1, OiMacroD; experiment: X-ray crystal structure, […] Å; details: crystal soaked with 20 mM ADPr; active site
OiMacroD [6] = molecular target: T2, OiMacroD (Oceanobacillus iheyensis, UniProt Q8EP31, G37V); experiment: X-ray crystal structure, […] Å; details: crystal soaked with 20 mM ADPr; active site
T2 construct: gene OB2288
T2 sequence (Q8EP31 entry or part of it G37V): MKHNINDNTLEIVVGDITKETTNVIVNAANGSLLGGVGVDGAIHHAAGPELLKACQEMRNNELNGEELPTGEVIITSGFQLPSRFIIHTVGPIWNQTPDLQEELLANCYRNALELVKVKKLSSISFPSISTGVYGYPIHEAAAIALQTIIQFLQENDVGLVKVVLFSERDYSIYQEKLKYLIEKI

T1 sequence (Q8EP31 entry or part of it): as the sequence (Q8EP31 entry or part of it G37V) above, with V37G counted along it

SMILES: Nc1ncnc2c1ncn2[C@@H]1O[C@H](COP(=O)(O)O)[C@@H](O)[C@H]1O [AMP]
- Tm with 1 mM AMP (OiMacroD [1]): 43.3 ± 0.1 °C

SMILES: Nc1ncnc2c1ncn2[C@@H]1O[C@H](COP(=O)(O)OP(=O)(O)O)[C@@H](O)[C@H]1O [ADP]
- Tm with 1 mM ADP (OiMacroD [2]): 44.0 ± 0.2 °C
- X-ray crystal structure, 1.75 Å (OiMacroD [3]): OiMacroD-ADP (5L9Q)

SMILES: Nc1ncnc2c1ncn2[C@@H]1O[C@H](COP(=O)(O)OP(=O)(O)OC[C@H]2OC(O)[C@H](O)[C@@H]2O)[C@@H](O)[C@H]1O (stereo partly drawn) [ADP-ribose]
- Tm with 1 mM ADPr (OiMacroD [4]): 47.8 ± 0.1 °C
- X-ray crystal structure, 1.77 Å (OiMacroD [5]): OiMacroD-ADPr (5L9K)
- X-ray crystal structure, 1.35 Å (OiMacroD [6]): OiMacroD G37V (ADPr) (5LAU)
